Tested on: PBMC
Assay: ELISPOT (IFNγ, IL-5, IL-10, IL-17, IL-21) of PBMC expanded 14 days with Bla g extract, then stimulated with peptides or peptide pools
Format: cell-based, human
Set-up: key to Average Magnitude of Response: spot forming cells (SFC) per 10^6 PBMC; Response Rate per Subject: unit not given here
Settings: non-redundant epitopes; sensitized donors
Protocol: PBMC Isolation and Cell Cultures: PBMC (peripheral blood mononuclear cells) were isolated from 450 mL (one unit) of blood by density gradient centrifugation as described and cryopreserved. For in vitro expansion of PBMC for peptide screening, cells were cultured in RPMI1640 (Omega Scientific)+5% human AB serum (Gemini Bioscience), GlutaMAX (Gibco), and penicillin/streptomycin (Omega Scientific) at 2×10^6 per mL, stimulated with 10 ug/mL Bla g extract (Greer), and incubated at 37° C. in 5% CO2. Every three days, IL-2 and IL-7 (10 U/mL) were added to the cultures. Cells were harvested for peptide screening at day 14.
ELISPOT Assays: Production of IFNγ, IL-5, IL-17, IL-10, and IL-21 (as representative of TH1, TH2, TH17, TR1, and […], respectively) in response to peptide stimulation was measured by ELISPOT as described previously. […] In brief, 1×10^5 cells per well were incubated with peptide, peptide pool, or Bla g extract (10, 5, and 10 ug/ml, respectively) on anti-lymphokine antibody coated ELISPOT plates (Millipore #MSIPS4510) for 22 hours. Subsequently, secondary anti-lymphokine antibodies were added and incubated for 2 hours, washed, and avidin-peroxidase complex added for 1 hour. Plates were washed and spots developed with 3-amino-9-ethylcarbazole (Sigma #A6926) and Vector Blue (Vector #SK-5300) for IFNγ/IL-5 and IL-10/IL-17 dual plates or TMB (Sigma #T0565) for single IL-21. Criteria for peptide pool positivity were at least 100 spot forming cells (SFC) per 10^6 PBMC, p<0.05, and stimulation index≥2. Criteria for peptide positivity were identical except with a threshold of 20 SFCs.
We synthetized overlapping peptide sets of 15 amino acids in length overlapping by 10 residues and covering the entire sequence of known Bla g Allergens, i.e. Bla g 1-7, 9 and 11, referred from hereafter collectively as BLAGA. A total of 809 BLAGA peptides were arranged in pools, encompassing on average 20 peptides.
To assess T cell reactivity, we utilized a strategy applied to the definition of epitopes from various allergen sources^15,16 utilizing in vitro stimulation with allergen extracts. Here, PBMC from each subject were stimulated in vitro with Bla g extract. After 14 days, pools of overlapping 15-mer peptides from the BLAGA were tested for responses, and positive pools deconvoluted to identify the specific epitopes. As readout, we utilized ELISPOT assays specific for IL-5, IFNγ, IL-10, IL-17 and IL-21, chosen as representative of TH2, TH1, TR1, TH17 and TFH reactivity, respectively.

Sequence | Average Magnitude of Response | Response Rate per Subject
VLEKLEAGFAKLAAS (listed as Blattella germanica) | 65.5 | 14.3
VLGLPAIKAWVAKRP | 48.5 | 14.3
VNQHKKAIEEDLKHF | 4.0 | 2.9
VPIMNIYSAFEFDPN | 18.5 | 4.3
VQKLQKEVDRLEDEL | 3.3 | 1.4
VVFDTGSSNLWVPSK | 4.7 | 4.3
VVRLQSWQSEMLRMN | 6.4 | 2.9
VYEVAIPDRLTLRVE | 3.4 | 2.9
WCNEEDHLRIISMQM | 13.1 | 7.1
WVCEHRWRQIFNMVG | 33.9 | 4.3
WVPSKKCHLTNIACL | 8.4 | 5.7
YFVAILDYLNHMAKE (listed as Blattella germanica) | 137.2 | 15.7
YHYDADENSKQKKWD | 3.7 | 2.9
YLGKQFGLSGKDDWE | 22.6 | 8.6

Source: patent US11505581B2, “Antigens and T cell epitopes from cockroach and methods of making and using same” (La Jolla Institute for Allergy and Immunology, priority 2015, dated 2022)
